Where only a bound is given, the exact number is not on record here.

This assay concerns the target recombinant human NUDT5 (Homo sapiens, UniProt Q9UKK9). In words: NUDT5 inhibitor activity by malachite green reporter assay. In kind it is biochemical. Particulars: Table 3; 6 nM NUDT5, 50 μM ADP-Ribose, 15 minutes at room temperature. The procedure: NUDT5 inhibitors were evaluated using a coupled enzymatic assay with detection of inorganic phosphate (Pi) using the malachite green assay. Following enzymatic hydrolysis of ADP-Ribose (Sigma-Aldrich A0572) by NUDT5, to yield AMP and ribose-5-phosphate, the latter product is continuously processed by a significant excess of alkaline phosphatase (Sigma-Aldrich, P0114). Formation of Pi is quantified based on the green complex (that absorbs at 630 nm) formed between malachite green and molybdate according to published procedure (Baykov, A. A., Evtushenko, O. A. and Avaeva, S. M., Anal Biochem, 171, 266-270 (1988)). Assay buffer consisted of 10 mM Tris-acetate at pH 8.0, 40 mM sodium chloride, 10 mM magnesium acetate, 0.005% Tween-20 and 1 mM dithiothreitol (DTT). The final conditions consisted of 6 nM recombinant human NUDT5, 50 μM ADP-Ribose and 10 U/ml of calf intestine alkaline phosphatase. The plates with compounds, enzymes and substrate were incubated at room temperature for 15 minutes, after which the reaction was terminated and the signal developed by the addition of the malachite green reagent using a MultiDrop (Thermo Scientific). Following vigorous shaking on plate shakers for a minimum of eight minutes the absorbance was read in a microplate reader (HidexSense) using a filter at 630 nm and a read time of 0.1 s per well. Inhibitors were used in dilutions from 100 μM to 1.7 nM in 3-fold dilution steps. Experiments were run in duplicate and confirmed in two independent experiments. IC50 values were determined by curve fitting using ExcelFit.
For orientation: In a reporter assay the amount or activity of a reporter protein is the signal.

What is called IC50 is the concentration that gives 50% inhibition. Consider `COc1nc2c(c(=O)n(C)c(=O)n2C)n1Cc1nnc(-c2ccc(Cl)c(Cl)c2)o1` [Example 1, 7-{[5-(3,4-dichlorophenyl)-1,3,4-oxadiazol-2-yl]methyl}-8-methoxy-1,3-dimethyl-2,3,6,7-tetrahydro-1H-purine-2,6-dione], for which the IC50 stood at 29.1 nM. For the molecule `Cn1c(=O)c2c(nc(NCCO)n2Cc2nnc(-c3ccc(Cl)c(Cl)c3)o2)n(C)c1=O` [Example 2, 7-{[5-(3,4-dichlorophenyl)-1,3,4-oxadiazol-2-yl]methyl}-8-[(2-hydroxyethyl)amino]-1,3-dimethyl-2,3,6,7-tetrahydro-1H-purine-2,6-dione], the IC50 stood at 23.7 nM. For the molecule `CN(C)c1nc2c(c(=O)n(C)c(=O)n2C)n1Cc1nnc(-c2ccc(Cl)c(Cl)c2)o1` [Example 3, 7-{[5-(3,4-dichlorophenyl)-1,3,4-oxadiazol-2-yl]methyl}-8-(dimethylamino)-1,3-dimethyl-2,3,6,7-tetrahydro-1H-purine-2,6-dione], the IC50 is 111 nM. For `CCN(CC)c1nc2c(c(=O)n(C)c(=O)n2C)n1Cc1nnc(-c2ccc(Cl)c(Cl)c2)o1` [Example 4, 7-{[5-(3,4-dichlorophenyl)-1,3,4-oxadiazol-2-yl]methyl}-8-(diethylamino)-1,3-dimethyl-2,3,6,7-tetrahydro-1H-purine-2,6-dione] the value was above 1000 nM; for `CNc1nc2c(c(=O)n(C)c(=O)n2C)n1Cc1nnc(-c2ccc(Cl)c(Cl)c2)o1` [Example 5, 7-{[5-(3,4-dichlorophenyl)-1,3,4-oxadiazo-2-yl]methyl}-1,3-dimethyl-8-(methylamino)-2,3,6,7-tetrahydro-1H-purine-2,6-dione], 12.5 nM. Turning to `CCSc1nc2c(c(=O)n(C)c(=O)n2C)n1Cc1nnc(-c2ccc(Cl)c(Cl)c2)o1` [Example 6, 7-{[5-(3,4-dichlorophenyl)-1,3,4-oxadiazol-2-yl]methyl}-8-(ethylsulfanyl)-1,3-dimethyl-2,3,6,7-tetrahydro-1H-purine-2,6-dione], the IC50 turned out to be 36.9 nM.

For `Cn1c(=O)c2c(nc(SC3CCCCC3)n2Cc2nnc(-c3ccc(Cl)c(Cl)c3)o2)n(C)c1=O` [Example 7, 8-(cyclohexylsulfanyl)-7-{[5-(3,4-dichlorophenyl)-1,3,4-oxadiazol-2-yl]methyl}-1,3-dimethyl-2,3,6,7-tetrahydro-1H-purine-2,6-dione], the concentration for half-maximal inhibition (IC50) was found to be 65.9 nM. `C=CCN(CC=C)c1nc2c(c(=O)n(C)c(=O)n2C)n1Cc1nnc(-c2ccc(Cl)c(Cl)c2)o1` [Example 8, 8-[bis(prop-2-en-1-yl)amino]-7-{[5-(3,4-dichlorophenyl)-1,3,4-oxadiazol-2-yl]methyl}-1,3-dimethyl-2,3,6,7-tetrahydro-1H-purine-2,6-dione]: the IC50 stood at 162 nM. As for `Cn1c(=O)c2c(nc(N3CCCCC3)n2Cc2nnc(-c3ccc(Cl)c(Cl)c3)o2)n(C)c1=O` [Example 9, 7-{[5-(3,4-dichlorophenyl)-1,3,4-oxadiazol-2-yl]methyl}-1,3-dimethyl-8-(piperidin-1-yl)-2,3,6,7-tetrahydro-1H-purine-2,6-dione], the IC50 came out at 15 nM. Turning to `CC1CCN(c2nc3c(c(=O)n(C)c(=O)n3C)n2Cc2nnc(-c3ccc(Cl)c(Cl)c3)o2)CC1` [Example 10, 7-{[5-(3,4-dichlorophenyl)-1,3,4-oxadiazol-2-yl]methyl}-1,3-dimethyl-8-(4-methylpiperidin-1-yl)-2,3,6,7-tetrahydro-1H-purine-2,6-dione], the 50% inhibitory concentration (IC50) stood at 22.9 nM. In the case of `Cn1c(=O)c2c(nc(N3CC4CCCCC4C3)n2Cc2nnc(-c3ccc(Cl)c(Cl)c3)o2)n(C)c1=O` (stereo not shown) [Example 11, 7-{[5-(3,4-dichlorophenyl)-1,3,4-oxadiazol-2-yl]methyl}-1,3-dimethyl-8-(octahydro-1H-isoindol-2-yl)-2,3,6,7-tetrahydro-1H-purine-2,6-dione], the IC50 worked out at 84.6 nM. For the molecule `Cn1c(=O)c2c(nc(N3CC4(COC4)C3)n2Cc2nnc(-c3ccc(Cl)c(Cl)c3)o2)n(C)c1=O` [Example 12, 7-{[5-(3,4-dichlorophenyl)-1,3,4-oxadiazol-2-yl]methyl}-1,3-dimethyl-8-{2-oxa-6-azaspiro[3.3]heptan-6-yl}-2,3,6,7-tetrahydro-1H-purine-2,6-dione], the concentration for half-maximal inhibition (IC50) is 42.5 nM. On to `Cn1c(=O)c2c(nc(N3CCOCC3)n2Cc2nnc(-c3ccc(Cl)c(Cl)c3)o2)n(C)c1=O` [Example 13, 7-{[5-(3,4-dichlorophenyl)-1,3,4-oxadiazol-2-yl]methyl}-1,3-dimethyl-8-(morpholin-4-yl)-2,3,6,7-tetrahydro-1H-purine-2,6-dione], for which the IC50 is 759 nM. As to `Cn1c(=O)c2c(nc(N3CCN(C(=O)OC(C)(C)C)CC3)n2Cc2nnc(-c3ccc(Cl)c(Cl)c3)o2)n(C)c1=O` [Example 14, tert-butyl 4-(7-{[5-(3,4-dichlorophenyl)-1,3,4-oxadiazol-2-yl]methyl}-1,3-dimethyl-2,6-dioxo-2,3,6,7-tetrahydro-1H-purin-8-yl)piperazine-1-carboxylate], the half-inhibitory concentration (IC50) worked out at 164 nM. `CCCCCCN1CCN(c2nc3c(c(=O)n(C)c(=O)n3C)n2Cc2nnc(-c3ccc(Cl)c(Cl)c3)o2)CC1` [Example 15, 7-{[5-(3,4-dichlorophenyl)-1,3,4-oxadiazol-2-yl]methyl}-8-(4-hexylpiperazin-1-yl)-1,3-dimethyl-2,3,6,7-tetrahydro-1H-purine-2,6-dione]: the IC50 was 432 nM.

On to `CN1CCN(c2nc3c(c(=O)n(C)c(=O)n3C)n2Cc2nnc(-c3ccc(Cl)c(Cl)c3)o2)CC1` [Example 18, 7-{[5-(3,4-dichlorophenyl)-1,3,4-oxadiazol-2-yl]methyl}-1,3-dimethyl-8-(4-methylpiperazin-1-yl)-2,3,6,7-tetrahydro-1H-purine-2,6-dione], for which the IC50 is 151 nM. Next, `Cn1c(=O)c2c(nc(N3CCC(CCO)CC3)n2Cc2nnc(-c3ccc(Cl)c(Cl)c3)o2)n(C)c1=O` [Example 20, 7-{[5-(3,4-dichlorophenyl)-1,3,4-oxadiazol-2-yl]methyl}-8-[4-(2-hydroxyethyl)piperidin-1-yl]-1,3-dimethyl-2,3,6,7-tetrahydro-1H-purine-2,6-dione]: 30 nM; `Cn1c(=O)c2c(nc(N3CCCCCC3)n2Cc2nnc(-c3ccc(Cl)c(Cl)c3)o2)n(C)c1=O` [Example 21, 8-(azepan-1-yl)-7-{[5-(3,4-dichlorophenyl)-1,3,4-oxadiazol-2-yl]methyl}-1,3-dimethyl-2,3,6,7-tetrahydro-1H-purine-2,6-dione]: 50.3 nM. In the case of `Cn1c(=O)c2c(nc(N3CCC4(CC3)NC(=O)NC4=O)n2Cc2nnc(-c3ccc(Cl)c(Cl)c3)o2)n(C)c1=O` [Example 22, 8-(7-{[5-(3,4-dichlorophenyl)-1,3,4-oxadiazol-2-yl]methyl}-1,3-dimethyl-2,6-dioxo-2,3,6,7-tetrahydro-1H-purin-8-yl)-1,3,8-triazaspiro[4.5]decane-2,4-dione], the IC50 came out at 35.1 nM. For `CCS(=O)(=O)c1nc2c(c(=O)n(C)c(=O)n2C)n1Cc1nnc(-c2ccc(Cl)c(Cl)c2)o1` [Example 23, 7-{[5-(3,4-dichlorophenyl)-1,3,4-oxadiazol-2-yl]methyl}-8-(ethanesulfonyl)-1,3-dimethyl-2,3,6,7-tetrahydro-1H-purine-2,6-dione] the value was 24.4 nM; for `Cn1c(=O)c2c(nc(S(=O)(=O)C3CCCCC3)n2Cc2nnc(-c3ccc(Cl)c(Cl)c3)o2)n(C)c1=O` [Example 24, 8-(cyclohexanesulfonyl)-7-{[5-(3,4-dichlorophenyl)-1,3,4-oxadiazol-2-yl]methyl}-1,3-dimethyl-2,3,6,7-tetrahydro-1H-purine-2,6-dione], 22.7 nM. For `Cn1c(=O)c2c(nc(N3CCC(N)C3)n2Cc2nnc(-c3ccc(Cl)c(Cl)c3)o2)n(C)c1=O` (stereo not shown) [Example 25, 8-(3-aminopyrrolidin-1-yl)-7-{[5-(3,4-dichlorophenyl)-1,3,4-oxadiazol-2-yl]methyl}-1,3-dimethyl-2,3,6,7-tetrahydro-1H-purine-2,6-dione] the value was 30 nM; for `Cn1c(=O)c2c(nc(N3CC(NC(=O)OC(C)(C)C)C3)n2Cc2nnc(-c3ccc(Cl)c(Cl)c3)o2)n(C)c1=O` [Example 26, tert-butyl N-[1-(7-{[5-(3,4-dichlorophenyl)-1,3,4-oxadiazol-2-yl]methyl}-1,3-dimethyl-2,6-dioxo-2,3,6,7-tetrahydro-1H-purin-8-yl)azetidin-3-yl]carbamate], 324 nM. Consider `Cn1c(=O)c2c(nc(N3CCCNCC3)n2Cc2nnc(-c3ccc(Cl)c(Cl)c3)o2)n(C)c1=O` [Example 27, 8-(1,4-diazepan-1-yl)-7-{[5-(3,4-dichlorophenyl)-1,3,4-oxadiazol-2-yl]methyl}-1,3-dimethyl-2,3,6,7-tetrahydro-1H-purine-2,6-dione], for which the half-inhibitory concentration (IC50) amounted to 19.3 nM. Consider `Cn1c(=O)c2c(nc(N3CCCC3)n2Cc2nnc(-c3ccc(Cl)c(Cl)c3)o2)n(C)c1=O` [Example 28, 7-{[5-(3,4-dichlorophenyl)-1,3,4-oxadiazol-2-yl]methyl}-1,3-dimethyl-8-(pyrrolidin-1-yl)-2,3,6,7-tetrahydro-1H-purine-2,6-dione], for which the half-inhibitory concentration (IC50) amounted to 37 nM.

The values above are taken from US20210128566A1, “NOVEL FUNCTIONALIZED PURINE-2,6-DIONES AND THEIR USE IN MEDICINE” (THOMAS HELLEDAYS STIFTELSE FÖR MEDICINSK FORSKNING, priority 2017, published 2021).
